Publication PMC3460366, “Synthesis and Antibacterial Evaluation of a New Series of N-Alkyl-2-alkynyl/(E)-alkenyl-4-(1H)-quinolones” (Molecules, 2012)
In brackets after ≈: the same amount, converted by molar mass. Several values for one entry are separate records, joined by “and”; a condition that tells them apart may be missing. Equal entries are not always repeated.

Experiments:
[1] = system: M. smegmatis (ATCC 14468); experiment: Microtiter broth dilution MIC against M. smegmatis (ATCC 14468); format: cell-based; conditions: Mycolicibacterium smegmatis, ATCC14468, 72 h, 37 °C, MTT
[2] = system: human diploid embryonic lung cell line MRC-5; experiment: XTT cytotoxicity assay on MRC-5 cells; format: cell-based; conditions: XTT
Procedure: In order to assess the cytotoxicity of these novel quinolone derivatives, the effect on the viability of a human lung fibroblast cell line MRC-5, was measured using XTT proliferation assay. […] In addition, the position of the triple bond in the side chain seems to have a significant influence on cytotoxcity which is increased in compounds with a triple bond more distant to the quinolone nucleus. This can be concluded by comparing results of 8l, 8n, 8p, and 8r having similar antimycobacterial activity on M. smegmatis but different cytotoxcity depending on triple bond position.
The cytotoxic activity of the synthetic compounds was determined by means of an XTT Cell Proliferation Kit II (Roche Diagnostics, Mannheim, Germany) using the human diploid embryonic lung cell line MRC-5 [11]. The quinolone derivatives were tested at concentrations of 100, 60, 30 and 10 µM in triplicate and the percentage of viable cells at each concentration was determined by comparing with the control.

M. smegmatis mc^2155 = experiment: Broth dilution MIC against M. smegmatis mc^2155; format: cell-based; conditions: Mycolicibacterium smegmatis, 72 h
M. fortuitum (ATCC 6841) = experiment: Broth dilution MIC against M. fortuitum; format: cell-based; conditions: Mycolicibacterium fortuitum, ATCC6841, 72 h
M. phlei (ATCC 11758) = experiment: Broth dilution MIC against M. phlei; format: cell-based; conditions: Mycolicibacterium phlei, ATCC11758, 72 h
[3] = system: M. bovis BCG (ATCC 35734); experiment: microbe, parasite or virus in culture; format: cell-based; conditions: Mycobacterium tuberculosis variant bovis BCG, 336 h, read-out: MIC M. bovis BCG
S. aureus EMRSA-15 = experiment: Broth dilution MIC against EMRSA-15; format: cell-based; conditions: Staphylococcus aureus, EMRSA15, 18 h
S. aureus EMRSA-16 = experiment: Broth dilution MIC against EMRSA-16; format: cell-based; conditions: Staphylococcus aureus, EMRSA16, 18 h

Compound: CCCCCCC#CCCc1cc(=O)c2ccccc2n1C [Compound 8a, 1-Methyl-2-(3′-decynyl)-4(1H)-quinolone]
- MIC [1]: 32 µg/mL and 108 µM
- Metabolic active MRC-5 cells (%) ([2]; 10 µM): 100 ± 1.05%
- Metabolic active MRC-5 cells (%) ([2]; 30 µM): 98.4 ± 1.07%
- Metabolic active MRC-5 cells (%) ([2]; 60 µM): 97.5 ± 0.74%
- Metabolic active MRC-5 cells (%) ([2]; 100 µM): 89.3 ± 2.94%

Compound: CCCCCCC#CCCc1cc(=O)c2ccccc2n1CC [Compound 8b, 1-Ethyl-2-(3'-decynyl)-4(1H)-quinolone]
- MIC [1]: 16 µg/mL and 51.8 µM
- Metabolic active MRC-5 cells (%) ([2]; 10 µM): 102 ± 0.85%
- Metabolic active MRC-5 cells (%) ([2]; 30 µM): 100 ± 0.73%
- Metabolic active MRC-5 cells (%) ([2]; 60 µM): 98.4 ± 0.77%
- Metabolic active MRC-5 cells (%) ([2]; 100 µM): 85.7 ± 1.96%

Compound: CCCCCCC#CCCc1cc(=O)c2ccccc2n1CCC [Compound 8c, 1-(n-Propyl)-2-(3′-decynyl)-4(1H)-quinolone]
- MIC [1]: 8 µg/mL and 24.8 µM
- Metabolic active MRC-5 cells (%) ([2]; 10 µM): 103 ± 1.22%
- Metabolic active MRC-5 cells (%) ([2]; 30 µM): 102 ± 0.42%
- Metabolic active MRC-5 cells (%) ([2]; 60 µM): 100 ± 0.55%
- Metabolic active MRC-5 cells (%) ([2]; 100 µM): 100 ± 1.45%

Compound: CCCCCCCC#CCCc1cc(=O)c2ccccc2n1C [Compound 8d, 1-Methyl-2-(3'-undecynyl)-4(1H)-quinolone]
- MIC [1]: 8 µg/mL and 25.9 µM
- Metabolic active MRC-5 cells (%) ([2]; 10 µM): 101 ± 1.08%
- Metabolic active MRC-5 cells (%) ([2]; 30 µM): 99.8 ± 0.52%
- Metabolic active MRC-5 cells (%) ([2]; 60 µM): 98.7 ± 0.8%
- Metabolic active MRC-5 cells (%) ([2]; 100 µM): 97.3 ± 0.66%

Compound: CCCCCCCC#CCCc1cc(=O)c2ccccc2n1CC [Compound 8e, 1-Ethyl-2-(3'-undecynyl)-4(1H)-quinolone]
- MIC [1]: 8 µg/mL and 24.8 µM
- Metabolic active MRC-5 cells (%) ([2]; 10 µM): 102 ± 1.05%
- Metabolic active MRC-5 cells (%) ([2]; 30 µM): 101 ± 1.42%
- Metabolic active MRC-5 cells (%) ([2]; 60 µM): 100 ± 0.56%
- Metabolic active MRC-5 cells (%) ([2]; 100 µM): 100 ± 1.05%

Compound: CCCCCCCC#CCCc1cc(=O)c2ccccc2n1CCC [Compound 8f, 1-(n-Propyl)-2-(3'-undecynyl)-4(1H)-quinolone]
- MIC [1]: 4 µg/mL and 11.9 µM
- Metabolic active MRC-5 cells (%) ([2]; 10 µM): 100 ± 1.05%
- Metabolic active MRC-5 cells (%) ([2]; 30 µM): 101 ± 1.28%
- Metabolic active MRC-5 cells (%) ([2]; 60 µM): 91.7 ± 2.77%
- Metabolic active MRC-5 cells (%) ([2]; 100 µM): 70.9 ± 8.50%

Compound: CCCCCCCCC#Cc1cc(=O)c2ccccc2n1CC [Compound 8g, 1-Ethyl-2-(1'-decynyl)-4(1H)-quinolone]
- MIC [1]: 2 µg/mL and 6.5 µM
- MIC (M. smegmatis mc^2155): 4 µg/mL and 12.9 µM
- MIC (M. fortuitum (ATCC 6841)): 8 µg/mL and 25.9 µM
- MIC (M. phlei (ATCC 11758)): 4 µg/mL and 12.9 µM
- Metabolic active MRC-5 cells (%) ([2]; 10 µM): 101 ± 0.97%
- Metabolic active MRC-5 cells (%) ([2]; 30 µM): 98.7 ± 2.97%
- Metabolic active MRC-5 cells (%) ([2]; 60 µM): 56.5 ± 2.03%
- Metabolic active MRC-5 cells (%) ([2]; 100 µM): 12.1 ± 4.79%

Compound: CCCCCCCCC#Cc1cc(=O)c2ccccc2n1CCC [Compound 8h, 1-(n-Propyl)-2-(1'-decynyl)-4(1H)-quinolone]
- MIC [1]: 4 µg/mL and 12.4 µM
- Metabolic active MRC-5 cells (%) ([2]; 10 µM): 103 ± 1.38%
- Metabolic active MRC-5 cells (%) ([2]; 30 µM): 101 ± 2.47%
- Metabolic active MRC-5 cells (%) ([2]; 60 µM): 39.5 ± 3.59%
- Metabolic active MRC-5 cells (%) ([2]; 100 µM): 14.1 ± 7.83%

Compound: CCCCCCCCC#Cc1cc(=O)c2ccccc2n1CCCC [Compound 8i, 1-(n-Butyl)-2-(1'-decynyl)-4(1H)-quinolone]
- MIC [1]: 4 µg/mL and 11.9 µM
- Metabolic active MRC-5 cells (%) ([2]; 10 µM): 103 ± 3.13%
- Metabolic active MRC-5 cells (%) ([2]; 30 µM): 101 ± 0.81%
- Metabolic active MRC-5 cells (%) ([2]; 60 µM): 67.2 ± 9.90%
- Metabolic active MRC-5 cells (%) ([2]; 100 µM): 28.7 ± 8.95%

Compound: CCCCCCCCC#CCCc1cc(=O)c2ccccc2n1C [Compound 8j, 1-Methyl-2-(3'-dodecynyl)-4(1H)-quinolone]
- MIC [1]: 4 µg/mL and 12.4 µM
- Metabolic active MRC-5 cells (%) ([2]; 10 µM): 97.6 ± 1.03%
- Metabolic active MRC-5 cells (%) ([2]; 30 µM): 96.7 ± 1.49%
- Metabolic active MRC-5 cells (%) ([2]; 60 µM): 95.1 ± 0.81%
- Metabolic active MRC-5 cells (%) ([2]; 100 µM): 95.84 ± 0.96%

Compound: CCCCCCCCC#CCCc1cc(=O)c2ccccc2n1CC [Compound 8k, 1-Ethyl-2-(3'-dodecynyl)-4(1H)-quinolone]
- MIC [1]: 4 µg/mL and 11.9 µM
- Metabolic active MRC-5 cells (%) ([2]; 10 µM): 97.6 ± 1.69%
- Metabolic active MRC-5 cells (%) ([2]; 30 µM): 95.1 ± 1.04%
- Metabolic active MRC-5 cells (%) ([2]; 60 µM): 94.7 ± 0.92%
- Metabolic active MRC-5 cells (%) ([2]; 100 µM): 74.8 ± 1.99%
- melting point: 66 to 68 °C

Compound: CCCCCCCCCCC#CCCc1cc(=O)c2ccccc2n1CC [Compound 8p, 1-Ethyl-2-(3'-tetradecynyl)-4(1H)-quinolone]
- MIC [1]: 1 µg/mL and 2.7 µM
- MIC (M. smegmatis mc^2155): 1 µg/mL and 2.7 µM
- MIC (M. fortuitum (ATCC 6841)): 4 µg/mL and 10.9 µM
- MIC (M. phlei (ATCC 11758)): 2 µg/mL and 5.5 µM
- Metabolic active MRC-5 cells (%) ([2]; 10 µM): 97.3 ± 1.37%
- Metabolic active MRC-5 cells (%) ([2]; 30 µM): 95.4 ± 0.76%
- Metabolic active MRC-5 cells (%) ([2]; 60 µM): 93.3 ± 1.13%
- Metabolic active MRC-5 cells (%) ([2]; 100 µM): 8.75 ± 9.35%
- melting point: 74 to 76 °C

Compound: CCCCCCCCCCCCC#CCCc1cc(=O)c2ccccc2n1C [Compound 8s, 1-Methyl-2-(3′-hexadecynyl)-4(1H)-quinolone]
- MIC [1]: 128 µg/mL and 338 µM
- Metabolic active MRC-5 cells (%) ([2]; 10 µM): 93.9 ± 0.61%
- Metabolic active MRC-5 cells (%) ([2]; 30 µM): 92.2 ± 0.70%
- Metabolic active MRC-5 cells (%) ([2]; 60 µM): 58.9 ± 3.65%
- Metabolic active MRC-5 cells (%) ([2]; 100 µM): 41.5 ± 9.49%
- melting point: 58 to 61 °C

Compound: CCCCCCCCCCCCCC#Cc1cc(=O)c2ccccc2n1C [Compound 8t, 1-Methyl-2-(1'-pentadecynyl)-4(1H)-quinolone]
- MIC [1]: 128 µg/mL and 351 µM
- Metabolic active MRC-5 cells (%) ([2]; 10 µM): 100 ± 1.01%
- Metabolic active MRC-5 cells (%) ([2]; 30 µM): 100 ± 1.38%
- Metabolic active MRC-5 cells (%) ([2]; 60 µM): 98.8 ± 1.28%
- Metabolic active MRC-5 cells (%) ([2]; 100 µM): 93.8 ± 0.96%

Compound: O=c1cc(/C=C/CCCCCCCCCCBr)n(C2CC2)c2ccccc12 [Compound 18a, 1-Cyclopropyl-2-[(E)-12-bromodec-1'-enyl]-4(1H)-quinolone]
- MIC [1]: 8 µg/mL and 18.6 µM
- melting point: 85 to 87 °C

Compound: O=c1cc(/C=C/CCCCCCCCCCCBr)n(C2CC2)c2ccccc12 [Compound 18b, 1-Cyclopropyl-2-[(E)-13-bromotridec-1'-enyl)-4(1H)-quinolone]
- MIC [1]: 8 µg/mL and 18.1 µM
- melting point: 61 to 63 °C

Compound: Cn1c(/C=C/CCCCCCCCCCBr)cc(=O)c2ccccc21 [Compound 19a, 1-Methyl-2-[(E)-12-bromodec-1'-enyl]-4(1H)-quinolone]
- MIC [1]: 0.5 µg/mL (≈ 1.24 µM)
- MIC (M. smegmatis mc^2155): 1 µg/mL and 2.5 µM
- MIC (M. fortuitum (ATCC 6841)): 1 µg/mL and 2.5 µM
- MIC (M. phlei (ATCC 11758)): 1 µg/mL and 2.5 µM

Compound: Cn1c(/C=C/CCCCCCCCCCCBr)cc(=O)c2ccccc21 [Compound 19b, 1-Methyl-2-[(E)-13-bromotridec-1'-enyl)-4(1H)-quinolone]
- MIC [1]: 0.5 µg/mL (≈ 1.19 µM)
- MIC (M. smegmatis mc^2155): 1 µg/mL and 2.4 µM
- MIC (M. fortuitum (ATCC 6841)): 1 µg/mL and 2.4 µM
- MIC (M. phlei (ATCC 11758)): 1 µg/mL and 2.4 µM

Compound: CCCCCCCCCCC/C=C/c1cc(=O)c2ccccc2n1C1CC1 [Compound 22a, 1-Cyclopropyl-2-[(E)-1′-tridecenyl]-4(1H)-quinolone]
- MIC [1]: 128 µg/mL and 351 µM
- melting point: 86 to 88 °C

Compound: CCCCCCCCCCCC/C=C/c1cc(=O)c2ccccc2n1C1CC1 [Compound 22b, 1-Cyclopropyl-2-[(E)-1′-tetradecenyl]-4(1H)-quinolone]
- MIC [1]: 128 µg/mL and 338 µM
- melting point: 96 to 98 °C

Compound: CC[C@@H](CO)NCCN[C@@H](CC)CO [Ethambutol, reference compound]
- MIC [1]: 2 µg/mL and 9.8 µM
- MIC (M. smegmatis mc^2155): 4 µg/mL and 19.6 µM
- MIC (M. fortuitum (ATCC 6841)): 8 µg/mL and 39.2 µM
- MIC (M. phlei (ATCC 11758)): 4 µg/mL and 19.6 µM

Compound: NNC(=O)c1ccncc1 [Isoniazid, reference compound]
- MIC [1]: 4 µg/mL and 29.2 µM
- MIC (M. smegmatis mc^2155): 4 µg/mL and 29.2 µM
- MIC (M. fortuitum (ATCC 6841)): 2 µg/mL and 14.6 µM
- MIC (M. phlei (ATCC 11758)): 8 µg/mL and 58.3 µM
- MIC [3]: 0.1 µg/mL and 0.7 µM

Compound: CCn1cc(C(=O)O)c(=O)c2cc(F)c(N3CCNCC3)cc21 [Norfloxacin, reference compound]
- MIC (S. aureus EMRSA-15): 0.5 µg/mL and 1.6 µM
- MIC (S. aureus EMRSA-16): 128 µg/mL and 401 µM

Compound: CN(C)[C@@H]1C(O)=C(C(N)=O)C(=O)[C@@]2(O)C(O)=C3C(=O)c4c(O)cccc4[C@@](C)(O)[C@H]3C[C@@H]12 [Tetracycline, reference compound]
- MIC (S. aureus EMRSA-15): 0.25 µg/mL and 0.6 µM
- MIC (S. aureus EMRSA-16): 0.25 µg/mL and 0.6 µM

Compound: CC[C@]1(O)C[C@@H]2CN(CCc3c([nH]c4ccccc34)[C@@](C(=O)OC)(c3cc4c(cc3OC)N(C)[C@H]3[C@@](O)(C(=O)OC)[C@H](OC(C)=O)[C@]5(CC)C=CCN6CC[C@]43[C@@H]65)C2)C1 [Vinblastin, reference compound]
- Metabolic active MRC-5 cells (%) ([2]; 0.12 µM (positive control)): 51.5 ± 2.36%
